Reference: paper PMC7823780 (Viruses, 2021)
“Also recorded” adds a separate entry of the source. Like-named read-outs stand apart in the source and are kept apart here.

What was measured:
CV-B4 = test: Plaque reduction assay CV-B4; format: cell-based, human enterovirus B; conditions: for EC50: Enterovirus B
[1] = Cytotoxicity assay, MTT, mock-infected MDBK; format: cell-based; conditions: bovine, mock-infected MDBK cells
Echo9 = test: Plaque reduction assay Echo9; format: cell-based, human enterovirus B; conditions: Enterovirus B; 50% reduction of plaque number, LLC-MK2 cells
[2] = Cytotoxicity assay, MTT, mock-infected HeLa; format: cell-based; conditions: human, mock-infected HeLa cells
[3] = Cytotoxicity assay, MTT, mock-infected Vero-76; format: cell-based; conditions: Cercopithecus aethiops, mock-infected Vero-76 cells, mock-infected Vero-76, MTT; for CC50 at 3 days: value marked *, after 3 * days; for CC50: value printed without *
[4] = Cytotoxicity assay, MTT, mock-infected BHK-21; format: cell-based; conditions: Syrian hamster, mock-infected BHK-21 cells; mock-infected BHK-21, MTT
EV-D68 = test: Inhibition of EV-D68-induced cytopathogenicity in HeLa cells (MTT); format: cell-based, human enterovirus D 68 strain Fermon; conditions: Enterovirus D, EVD68, m.o.i. 0.01
CV-B5 = test: Plaque reduction assay CV-B5; format: cell-based, human enterovirus B; conditions: Enterovirus B
[5] = Cytotoxicity assay, mock-infected LLC-MK2; format: cell-based; conditions: Macaca mulatta, mock-infected LLC-MK2 cells, mock-infected LLC-MK2, MTT
CV-B3 = test: Plaque reduction assay CV-B3; format: cell-based, human enterovirus B; conditions: Enterovirus B
PV-1 = test: microbe, parasite or virus in culture; format: cell-based; conditions: Enterovirus C, read-out: EC50 PV-1
EV-A71 [6] = test: Protective effect on EV-A71-infected Vero-76 monolayers (cell morphology); format: cell-based
EV-A71 [7] = test: Adsorption assay; format: cell-based, human enterovirus A71 strain BrCr; conditions: Vero-76, m.o.i. 1, 20 µM, 2 h at 4 °C
EV-A71 [8] = test: Penetration assay; format: cell-based, human enterovirus A71 strain BrCr; conditions: Enterovirus A, EVA71, 1 h; Vero-76, 100–0.8 µM, 60 min at 37 °C; read-out: EC50 of inhibition of viral penetration
Caco-2 cells = test: Cell monolayer permeabilization (TEER); format: cell-based, human; conditions: Caco-2 monolayers, 20 µM, all time points up to 48 h
EV-A71 [9] = test: Cell pretreatment assay; format: cell-based, human enterovirus A71 strain BrCr; conditions: Vero-76 pre-incubated 2 h with 20 µM, then infected
EV-A71 [10] = test: Inhibition of EV-A71-induced cytopathogenicity in Vero-76 cells (MTT); format: cell-based, human enterovirus A71 strain BrCr
EV-A71 [11] = test: Time-of-addition assay; format: cell-based, human enterovirus A71 strain BrCr; conditions: Vero-76, m.o.i. 1, 20 µM
EV-A71 [12] = test: Yield reduction assay; format: cell-based, human enterovirus A71 strain BrCr; conditions: Vero-76, m.o.i. 0.1, 100, 20, 4 and 0.8 µM, 96 h
EV-A71 [13] = test: Apoptosis assay, Annexin V/PI flow cytometry, EV-A71-infected Vero-76; format: cell-based, human enterovirus A71 strain BrCr; conditions: 96 h, m.o.i. 0.1
EV-A71 [14] = test: Virucidal activity assay; format: cell-based, human enterovirus A71 strain BrCr; conditions: 20 µM, 4 or 37 °C, 1 h
[15] = CVB4, 50% reduction of plaque number, read-out: EC50 CV-B4
[16] = CVB5, 50% reduction of plaque number, read-out: EC50 CV-B5
[17] = CVB3, 50% reduction of plaque number, read-out: EC50 CV-B3

SMILES: CC(C)c1ccc(-c2nc3ccccc3[nH]2)cc1 [Compound 1a, 2-(4-Isopropylphenyl)-1H-Benzo[d]imidazole]
- EC50 (CV-B4; [15]): > 60 µM
- CC50 [1]: 65 µM
- EC50 (Echo9): > 6 µM
- CC50 at 4 days [2]: 9 µM
- CC50 at 3 days [3]: 24 µM
- CC50 [3]: 60 µM
- CC50 [4]: 36 µM
- EC50 (EV-D68): > 9 µM
- EC50 (CV-B5; [16]): > 60 µM
- CC50 at 5 days [5]: 6 µM
- EC50 (CV-B3; [17]): > 60 µM
- EC50 (PV-1): 11.5 µM

SMILES: CC(C)(C)c1ccc(-c2nc3ccccc3[nH]2)cc1 [Compound 1b, 2-(4-(Tert-Butyl)phenyl)-1H-Benzo[d]imidazole]
- EC50 (CV-B4; [15]): > 46 µM
- CC50 [1]: 9 µM
- EC50 (Echo9): > 6.5 µM
- CC50 at 4 days [2]: 9 µM
- CC50 at 3 days [3]: 40 µM
- CC50 [3]: 46 µM
- CC50 [4]: 20 µM
- EC50 (EV-D68): > 9 µM
- EC50 (CV-B5; [16]): 7 µM
- CC50 at 5 days [5]: 6.5 µM
- EC50 (CV-B3; [17]): > 46 µM
- EC50 (PV-1): 9 µM

SMILES: CC(C)c1ccc(-c2nc3cc(Cl)ccc3[nH]2)cc1 [Compound 2a, 5-Chloro-2-(4-Isopropylphenyl)-1H-Benzo[d]imidazole]
- EC50 CV-B4 (CV-B4; 50% reduction of plaque number): No activity
- EC50 (CV-B4; [15]): ≥ 100 µM
- CC50 [1]: 80 µM
- EC50 (Echo9): 8 µM
- CC50 at 4 days [2]: 100 µM
- CC50 [3]: > 100 µM
- CC50 [4]: > 100 µM
- EC50 (EV-D68): > 100 µM
- EC50 (CV-B5; [16]): 10 µM
- CC50 at 5 days [5]: > 100 µM
- EC50 (CV-B3; [17]): 17 µM
- EC50 (PV-1): 9 µM

SMILES: CC(C)(C)c1ccc(-c2nc3cc(Cl)ccc3[nH]2)cc1 [Compound 2b, 2-(4-(Tert-Butyl)phenyl)-5-Chloro-1H-Benzo[d]imidazole]
- protection of Vero-76 monolayer from EV-A71 infection (morphology) (EV-A71 [6]; 20 µM and 80 µM, m.o.i. 0.1): protect cells from EV-A71 infection
- cytotoxic effect on Vero-76 monolayer (morphology) (EV-A71 [6]; up to a concentration of 80 µM): no evident cytotoxic effects
- virus titer in adsorption assay (EV-A71 [7]): detectable reduction in the virus titer
- EC50 (CV-B4; [15]): 25.5 µM
- CC50 [1]: > 100 µM
- EC50 (Echo9): 4 µM
- CC50 at 4 days [2]: 100 µM
- CC50 [3]: > 100 µM
- EC50 (EV-A71 [8]): 6.2 µM
- TEER values versus control (Caco-2 cells): not significantly different from control values; also recorded: did not induce any significant change in permeability
- inhibition after cell pre-incubation (EV-A71 [9]): no inhibition
- CC50 [4]: > 100 µM
- EC50 (EV-A71 [10]; 50% protection of Vero-76 cells from EV-A71-induced cytopathogenicity, MTT, m.o.i. 0.01): 3.5 µM
- selectivity index (EV-A71 [10]; EV-A71, Vero-76): > 30
- EC50 (EV-D68): > 100 µM
- EC50 (CV-B5; [16]): 10 µM
- effect by time of addition (EV-A71 [11]): greatest effect when added along with the virus
- CC50 at 5 days [5]: 12 µM
- reduction in EV-A71 titer (yield reduction) (EV-A71 [12]): dose-dependent reduction
- EC50 (CV-B3; [17]): 33 µM
- viability at 20 µM (EV-A71 [13]; Enterovirus A, EVA71, Vero-76, 20 µM, read-out: viability of EV-A71-infected cells): 90%
- viability at 80 µM (EV-A71 [13]; Enterovirus A, EVA71, Vero-76, 80 µM, read-out: viability of EV-A71-infected cells): 80%
- necrotic cells among EV-A71-infected cells (EV-A71 [13]; Vero-76, 20 µM): 10%
- necrotic cells among EV-A71-infected cells (EV-A71 [13]; Vero-76, 80 µM): 20%
- EC50 (PV-1): 6 µM
- virucidal effect on EV-A71 infectivity (EV-A71 [14]): failed to affect the EV-A71 infectivity

SMILES: CC(C)c1ccc(-c2nc3cc(Cl)c(Cl)cc3[nH]2)cc1 [Compound 3a, 5,6-Dichloro-2-(4-Isopropylphenyl)-1H-Benzo[d]imidazole]
- EC50 (CV-B4; CVB4, read-out: EC50 CV-B4): > 25.5 µM
- CC50 [1]: 2.5 µM
- EC50 (Echo9): > 7 µM
- CC50 at 4 days [2]: 8 µM
- CC50 at 3 days [3]: 8 µM
- CC50 [3]: 25.5 µM
- CC50 [4]: 8 µM
- EC50 (EV-D68): > 8 µM
- EC50 (CV-B5; CVB5, read-out: EC50 CV-B5): > 25.5 µM
- CC50 at 5 days [5]: 7 µM
- EC50 (CV-B3; CVB3, read-out: EC50 CV-B3): > 25.5 µM
- EC50 (PV-1): > 25.5 µM

SMILES: CC(C)(C)c1ccc(-c2nc3cc(Cl)c(Cl)cc3[nH]2)cc1 [Compound 3b, 2-(4-(Tert-Butyl)phenyl)-5,6-Dichloro-1H-Benzo[d]imidazole]
- EC50 (CV-B4; [15]): > 9 µM
- CC50 [1]: 7 µM
- EC50 (Echo9): > 12 µM
- CC50 at 4 days [2]: 6.4 µM
- CC50 [3]: 9 µM
- CC50 [4]: 9 µM
- EC50 (EV-D68): > 6.4 µM
- EC50 (CV-B5; [16]): 2 µM
- CC50 at 5 days [5]: 12 µM
- EC50 (CV-B3; [17]): > 9 µM
